Reference: ChEMBL document CHEMBL4627271, “Design, synthesis and evaluation of new 4-arylthiazole-2-amine derivatives as acetylcholinesterase inhibitors” (Bioorg Med Chem Lett, 2020)
Active and inactive are the calls of the source. No cut-off for these calls is given here.

Legend:
[1] = target: Cholinesterase (Canis lupus familiaris, UniProt P32750); test: Inhibition of dog serum BChE using butrylthiocholine iodide as substrate by spectrophotometry based Ellman's method
[2] = target: Acetylcholinesterase (Electrophorus electricus, UniProt O42275); test: Inhibition of Electric eel AChE using […] as substrate by spectrophotometry based Ellman's method
[3] = Selectivity index, ratio of IC50 for dog serum BChE to IC50 for Electric eel AChE
[4] = target: T1, Acetylcholinesterase (Homo sapiens, UniProt P22303); test: Inhibition of AChE (unknown origin) using […] as substrate incubated for 15 mins by Ellman's method
[5] = target: Acetylcholinesterase (Electrophorus electricus) (UniProt O42275); test: Competitive inhibition of Electric eel AChE using […] as substrate by spectrophotometry based Lineweaver-Burk plot analysis
[6] = target: T1, Acetylcholinesterase; test: Inhibition of AChE (unknown origin)

Cholinesterase, sequence (P32750 whole entry): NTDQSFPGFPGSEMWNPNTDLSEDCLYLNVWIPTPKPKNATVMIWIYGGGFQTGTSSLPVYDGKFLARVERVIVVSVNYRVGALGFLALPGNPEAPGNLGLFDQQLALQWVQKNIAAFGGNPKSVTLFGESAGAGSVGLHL
Acetylcholinesterase (Electrophorus electricus, UniProt O42275), sequence (O42275 whole entry): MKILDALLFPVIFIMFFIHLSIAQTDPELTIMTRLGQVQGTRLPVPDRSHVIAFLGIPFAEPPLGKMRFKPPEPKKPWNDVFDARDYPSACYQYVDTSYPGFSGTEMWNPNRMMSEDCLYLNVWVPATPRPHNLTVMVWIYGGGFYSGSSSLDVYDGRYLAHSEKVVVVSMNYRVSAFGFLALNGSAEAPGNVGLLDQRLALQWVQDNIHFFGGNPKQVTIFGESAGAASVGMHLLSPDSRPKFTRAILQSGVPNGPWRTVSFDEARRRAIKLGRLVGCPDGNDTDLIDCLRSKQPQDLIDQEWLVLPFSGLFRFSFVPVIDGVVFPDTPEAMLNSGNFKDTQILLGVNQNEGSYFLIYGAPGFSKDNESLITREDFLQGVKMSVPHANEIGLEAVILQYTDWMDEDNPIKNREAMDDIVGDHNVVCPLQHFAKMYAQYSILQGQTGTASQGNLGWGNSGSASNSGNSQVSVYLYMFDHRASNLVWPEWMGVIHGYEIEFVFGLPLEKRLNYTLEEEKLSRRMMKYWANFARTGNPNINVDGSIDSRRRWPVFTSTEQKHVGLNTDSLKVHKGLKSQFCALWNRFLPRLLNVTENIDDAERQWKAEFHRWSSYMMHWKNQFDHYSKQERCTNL
T1 sequence (P22303 whole entry): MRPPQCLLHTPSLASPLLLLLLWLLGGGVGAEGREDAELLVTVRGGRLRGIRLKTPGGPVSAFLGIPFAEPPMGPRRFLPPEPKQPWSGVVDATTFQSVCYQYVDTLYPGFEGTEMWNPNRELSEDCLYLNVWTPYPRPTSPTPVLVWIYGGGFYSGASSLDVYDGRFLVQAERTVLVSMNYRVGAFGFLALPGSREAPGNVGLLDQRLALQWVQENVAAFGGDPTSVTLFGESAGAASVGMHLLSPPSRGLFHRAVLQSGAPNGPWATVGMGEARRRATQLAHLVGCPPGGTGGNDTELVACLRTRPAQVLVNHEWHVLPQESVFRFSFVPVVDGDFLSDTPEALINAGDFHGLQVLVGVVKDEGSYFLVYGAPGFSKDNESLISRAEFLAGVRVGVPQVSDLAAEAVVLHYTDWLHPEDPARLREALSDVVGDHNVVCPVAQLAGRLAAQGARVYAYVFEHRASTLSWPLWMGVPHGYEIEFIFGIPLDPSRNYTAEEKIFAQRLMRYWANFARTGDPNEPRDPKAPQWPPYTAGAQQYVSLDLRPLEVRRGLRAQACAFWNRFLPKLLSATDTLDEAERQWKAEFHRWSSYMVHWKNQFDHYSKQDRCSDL
Acetylcholinesterase (Electrophorus electricus), sequence (O42275 24-633 limits assumed): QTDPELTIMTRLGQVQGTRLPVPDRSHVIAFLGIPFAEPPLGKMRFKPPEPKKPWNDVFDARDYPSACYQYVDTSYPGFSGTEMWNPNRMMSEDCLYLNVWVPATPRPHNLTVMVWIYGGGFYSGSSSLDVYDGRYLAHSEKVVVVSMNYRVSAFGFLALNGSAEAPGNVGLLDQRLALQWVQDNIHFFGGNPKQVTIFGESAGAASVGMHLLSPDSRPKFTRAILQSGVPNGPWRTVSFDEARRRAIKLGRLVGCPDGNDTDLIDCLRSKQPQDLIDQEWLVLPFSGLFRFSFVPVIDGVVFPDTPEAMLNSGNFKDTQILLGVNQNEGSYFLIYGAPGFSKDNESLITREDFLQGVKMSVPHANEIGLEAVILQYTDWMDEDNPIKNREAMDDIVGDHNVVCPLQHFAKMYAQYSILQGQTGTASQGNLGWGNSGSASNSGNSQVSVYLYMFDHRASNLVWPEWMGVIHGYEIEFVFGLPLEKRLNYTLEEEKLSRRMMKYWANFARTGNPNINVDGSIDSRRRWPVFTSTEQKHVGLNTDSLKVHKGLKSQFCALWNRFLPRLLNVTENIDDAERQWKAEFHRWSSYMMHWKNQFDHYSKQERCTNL

Row | SMILES | IC50 [1] | IC50 [2] | other results
1 | COc1ccc(CC(=O)Nc2ncc(-c3ccc(OCCCCN4CCCCC4)cc3)s2)cc1OC | 49.2 µM | 0.95 µM | Ratio IC50 [3]: 52
2 | COc1ccc(CC(=O)Nc2ncc(-c3ccc(OCCCCNC4CCN(Cc5ccccc5)CC4)cc3)s2)cc1OC | 7.23 µM | 4.24 µM | –
3 | COc1cc(CC(=O)Nc2ncc(-c3ccc(OCCCN4CCCC4)cc3)s2)cc(OC)c1OC | 17.3 µM | 7.84 µM | –
4 | COc1ccc(CC(=O)Nc2ncc(-c3ccc(OCCCCCN4CCCC4)cc3)s2)cc1OC | 9.85 µM | 3.34 µM | –
5 | COc1ccc(CC(=O)Nc2ncc(-c3ccc(OCCCN4CCCC4)cc3)s2)cc1 | 9.01 µM | 37.3 µM | –
6 | CCN(C)C(=O)Oc1cccc([C@H](C)N(C)C)c1 [RIVASTIGMINE] | 6.27 µM | – | –
7 | COc1ccc(CC(=O)Nc2ncc(-c3ccc(OCCCN4CCCC4)cc3)s2)cc1OC | 6.89 µM | 6.51 µM | –
8 | COc1ccc(C(=O)Nc2ncc(-c3ccc(OCCCN4CCCC4)cc3)s2)cc1OC | 8.1 µM | 39.3 µM | –
9 | COc1ccc(CCC(=O)Nc2nc(-c3cc4ccccc4oc3=O)cs2)cc1OC | – | – | IC50 [4]: 0.74 µM
10 | COc1ccc(CC(=O)Nc2ncc(-c3ccc(OCCCCSc4ccncc4)cc3)s2)cc1OC | 14.3 µM | 5.5 µM | –
11 | C/C=C1\[C@H]2C=C(C)C[C@]1(N)c1ccc(=O)[nH]c1C2 [HUPERZINE A] | > 10000 µM | – | –
12 | COc1ccc(CC(=O)Nc2ncc(-c3ccc(OCCCCN4CCCC4)cc3)s2)cc1OC | 10.2 µM | 0.66 µM | inhibition [5]: Active; Ratio IC50 [3]: 16
13 | COc1ccc(CC(=O)Nc2ncc(-c3ccc(OCCN4CCCC4)cc3)s2)cc1OC | 23.9 µM | 6.31 µM | –
14 | COc1ccc(-c2csc(NC(=O)CCN3CCCC3)n2)cc1 | – | – | IC50 [6]: 0.51 µM
15 | COc1ccc(CC(=O)Nc2ncc(-c3ccc(OCCCCN4CCN(Cc5ccccc5)CC4)cc3)s2)cc1OC | 41 µM | 5.75 µM | –
